Consider 8 compounds from ChEMBL document CHEMBL1909046, “DrugMatrix in vitro pharmacology data”.

Series [1] has as its target Sigma non-opioid intracellular receptor 1 (Homo sapiens, UniProt Q99720). Description: DRUGMATRIX: Sigma1 radioligand binding (ligand: [3H] Haloperidol). The series is classed as cell membranes, Jurkat, Membrane. As to conditions: Not Active = under 50% inhibition at 10 µM.
A short description of series [2]: DRUGMATRIX: Glutamate, Kainate radioligand binding (ligand: [3H] Kainic acid). As to conditions: Not Active = under 50% inhibition at 10 µM. The series is classed as cell membranes, Rattus norvegicus, Wistar, Brain, Membrane.
A short description of series [3]: DRUGMATRIX: Glutamate, NMDA, Phencyclidine radioligand binding (ligand: [3H] TCP). In kind it is cell membranes, Rattus norvegicus, Wistar, Cerebral cortex, Membrane. Particulars: Not Active = under 50% inhibition at 10 µM.
The target in a further series is Insulin receptor (Rattus norvegicus, UniProt P15127). The series is classed as cell membranes, Wistar, Liver, Membrane. Note: in other assays of this panel Not Active means under 50% inhibition at 10 µM.
Insulin receptor, sequence (P15127 27-759 limits assumed): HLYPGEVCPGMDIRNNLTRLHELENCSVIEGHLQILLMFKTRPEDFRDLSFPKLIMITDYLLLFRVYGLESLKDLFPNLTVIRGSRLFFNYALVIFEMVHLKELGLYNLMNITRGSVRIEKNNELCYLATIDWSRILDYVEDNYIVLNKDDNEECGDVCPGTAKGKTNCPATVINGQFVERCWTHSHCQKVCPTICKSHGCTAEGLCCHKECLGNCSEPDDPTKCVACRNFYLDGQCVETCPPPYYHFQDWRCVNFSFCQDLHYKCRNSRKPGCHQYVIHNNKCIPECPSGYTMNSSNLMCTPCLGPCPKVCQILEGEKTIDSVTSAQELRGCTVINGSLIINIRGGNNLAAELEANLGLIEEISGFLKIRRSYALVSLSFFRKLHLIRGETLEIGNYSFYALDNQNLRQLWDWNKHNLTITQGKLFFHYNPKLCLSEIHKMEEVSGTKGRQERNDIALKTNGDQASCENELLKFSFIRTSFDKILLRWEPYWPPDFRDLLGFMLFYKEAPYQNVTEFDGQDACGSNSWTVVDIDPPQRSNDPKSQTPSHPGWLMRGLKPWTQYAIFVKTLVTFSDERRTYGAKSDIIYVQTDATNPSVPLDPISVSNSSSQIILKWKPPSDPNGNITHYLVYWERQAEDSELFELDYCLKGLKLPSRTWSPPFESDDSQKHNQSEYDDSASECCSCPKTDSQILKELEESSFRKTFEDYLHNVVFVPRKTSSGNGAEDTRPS
Insulin receptor, sequence (P15127 764-1383 limits assumed): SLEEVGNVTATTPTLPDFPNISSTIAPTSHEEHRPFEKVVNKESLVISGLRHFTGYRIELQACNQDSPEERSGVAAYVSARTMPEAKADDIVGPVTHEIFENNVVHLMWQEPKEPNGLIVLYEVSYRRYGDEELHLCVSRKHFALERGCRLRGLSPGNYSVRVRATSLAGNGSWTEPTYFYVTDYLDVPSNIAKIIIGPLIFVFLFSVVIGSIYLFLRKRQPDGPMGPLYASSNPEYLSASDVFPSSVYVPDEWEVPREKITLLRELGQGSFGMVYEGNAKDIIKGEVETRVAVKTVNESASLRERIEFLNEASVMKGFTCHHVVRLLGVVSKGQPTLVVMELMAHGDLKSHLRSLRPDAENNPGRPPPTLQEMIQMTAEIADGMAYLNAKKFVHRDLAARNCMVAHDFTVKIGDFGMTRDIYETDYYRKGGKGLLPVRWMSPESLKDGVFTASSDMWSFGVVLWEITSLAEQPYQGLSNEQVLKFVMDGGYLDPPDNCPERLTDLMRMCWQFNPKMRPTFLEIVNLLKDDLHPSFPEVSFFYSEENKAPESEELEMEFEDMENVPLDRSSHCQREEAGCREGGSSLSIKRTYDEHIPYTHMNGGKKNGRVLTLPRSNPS
In series [4] the target is T1, 5-hydroxytryptamine receptor 1A (Rattus norvegicus, UniProt P19327). Note: in other assays of this panel Not Active means under 50% inhibition at 10 µM.
T1 sequence (P19327 whole entry): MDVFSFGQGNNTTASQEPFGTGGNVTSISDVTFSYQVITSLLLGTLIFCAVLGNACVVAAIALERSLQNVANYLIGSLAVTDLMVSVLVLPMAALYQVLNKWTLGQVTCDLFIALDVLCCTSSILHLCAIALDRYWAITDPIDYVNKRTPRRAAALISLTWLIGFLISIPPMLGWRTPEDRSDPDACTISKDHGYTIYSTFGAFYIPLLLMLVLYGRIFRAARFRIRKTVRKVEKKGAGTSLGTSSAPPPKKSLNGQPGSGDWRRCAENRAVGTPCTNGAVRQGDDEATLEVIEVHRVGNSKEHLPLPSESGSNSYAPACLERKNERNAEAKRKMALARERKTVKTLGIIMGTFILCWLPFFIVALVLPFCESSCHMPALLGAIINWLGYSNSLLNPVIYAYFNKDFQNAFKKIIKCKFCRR
The series is classed as cell membranes, CHO-K1, Membrane.

Another series addresses T2, Cytochrome P450 1A2 (Homo sapiens, UniProt P05177).
T2 sequence (P05177 whole entry): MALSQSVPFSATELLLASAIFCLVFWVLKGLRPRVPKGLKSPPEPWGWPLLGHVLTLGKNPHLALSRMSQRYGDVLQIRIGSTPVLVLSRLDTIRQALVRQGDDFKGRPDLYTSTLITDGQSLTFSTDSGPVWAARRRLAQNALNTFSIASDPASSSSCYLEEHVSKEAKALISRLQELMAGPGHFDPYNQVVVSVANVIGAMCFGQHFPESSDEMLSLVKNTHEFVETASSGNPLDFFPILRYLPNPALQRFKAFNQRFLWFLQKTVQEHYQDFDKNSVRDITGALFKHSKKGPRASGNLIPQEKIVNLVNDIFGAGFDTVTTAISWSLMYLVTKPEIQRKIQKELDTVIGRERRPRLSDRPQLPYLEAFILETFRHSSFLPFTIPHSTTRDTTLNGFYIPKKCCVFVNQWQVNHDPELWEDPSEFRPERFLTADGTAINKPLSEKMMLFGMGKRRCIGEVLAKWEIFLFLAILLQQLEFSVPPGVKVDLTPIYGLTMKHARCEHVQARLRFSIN
As to conditions: bti-tn-5b1-4.

Sigma non-opioid intracellular receptor 1, sequence (Q99720 whole entry): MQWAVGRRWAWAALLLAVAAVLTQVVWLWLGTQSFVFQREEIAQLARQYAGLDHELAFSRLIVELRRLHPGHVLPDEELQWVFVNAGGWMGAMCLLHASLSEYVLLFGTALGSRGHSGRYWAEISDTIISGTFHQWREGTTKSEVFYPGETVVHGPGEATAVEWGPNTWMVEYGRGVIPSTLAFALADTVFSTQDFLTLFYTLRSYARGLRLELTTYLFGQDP

`CC[C@H]1OC(=O)[C@H](C)[C@@H](O[C@H]2C[C@@](C)(OC)[C@@H](O)[C@H](C)O2)[C@H](C)[C@@H](O[C@@H]2O[C@H](C)C[C@H](N(C)C)[C@H]2O)[C@](C)(OC)C[C@@H](C)C(=O)[C@H](C)[C@@H](O)[C@]1(C)O` [CLARITHROMYCIN]: the IC50 entry (in series [1] (jurkat); in series [2]; in series [3]; at Insulin receptor; in series [4] (cho-k1); at Cytochrome P450 1A2) was “Not Active” each time. The inhibitory constant (Ki) result (in series [2]; in series [3]; on Cytochrome P450 1A2) was “Not Active” in each case.
As to `O=C(O)c1cc(=O)c2c(OCC(O)COc3cccc4oc(C(=O)O)cc(=O)c34)cccc2o1` [CROMOLYN], the half-inhibitory concentration (IC50) entry (in series [1] (jurkat); in series [2]; in series [3]; on Insulin receptor; in series [4] (cho-k1); at Cytochrome P450 1A2) was “Not Active” in each case. Further, the Ki result (in series [2]; in series [3]; on Cytochrome P450 1A2) was “Not Active” in each case.
`O=P1(N(CCCl)CCCl)NCCCO1` (centres undefined) [CYCLOPHOSPHAMIDE ANHYDROUS]: the concentration for half-maximal inhibition (IC50) result (in series [1] (jurkat); in series [2]; in series [3]; on Insulin receptor; in series [4] (cho-k1); at Cytochrome P450 1A2) was “Not Active” each time. The inhibition constant Ki result (in series [2]; in series [3]; at Cytochrome P450 1A2) was “Not Active” each time.
`CC(=O)O[C@]1(C(C)=O)CC[C@H]2[C@@H]3C=C(Cl)C4=CC(=O)[C@@H]5C[C@@H]5[C@]4(C)[C@H]3CC[C@@]21C` [CYPROTERONE ACETATE]: the IC50 entry (in series [1] (jurkat); in series [2]; in series [3]; against Insulin receptor; in series [4] (cho-k1); against Cytochrome P450 1A2) was “Not Active” in each case. In addition, the inhibition constant (Ki) entry (in series [2]; in series [3]; on Cytochrome P450 1A2) was “Not Active” throughout.
`Nc1nc(N)nc(NC2CC2)n1` [CYROMAZINE]: the IC50 entry (in series [1] (jurkat); in series [2]; in series [3]; on Insulin receptor; in series [4] (cho-k1); at Cytochrome P450 1A2) was “Not Active” each time. The Ki entry (in series [2]; in series [3]; at Cytochrome P450 1A2) was “Not Active” in each case.
For `C#C[C@]1(O)CC[C@H]2[C@@H]3CCC4=Cc5oncc5C[C@]4(C)[C@H]3CC[C@@]21C` [DANAZOL], the IC50 entry (in series [1] (jurkat); in series [2]; in series [3]; against Insulin receptor; in series [4] (cho-k1); on Cytochrome P450 1A2) was “Not Active” throughout. Further, the inhibition constant (Ki) entry (in series [2]; in series [3]; on Cytochrome P450 1A2) was “Not Active” throughout.
Turning to `CCN[C@@H](C)Cc1cccc(C(F)(F)F)c1` [DEXFENFLURAMINE], the half-inhibitory concentration (IC50) (commonly the concentration that gives 50% inhibition) in series [1] (read-out: IC50) was 516 nM; in series [2], “Not Active”; in series [3], “Not Active”; on Insulin receptor it was “Not Active”; in series [4] (read-out: IC50), 3400 nM; against Cytochrome P450 1A2 it was “Not Active”. The Ki – broadly, the equilibrium dissociation constant of an inhibitor or competing ligand from its target – was 217 nM in series [1] (read-out: Ki); “Not Active” in series [2]; “Not Active” in series [3]; 1940 nM in series [4] (read-out: Ki); “Not Active” at Cytochrome P450 1A2.
For the compound `C[C@H](C(=O)O)c1cccc(C(=O)c2ccccc2)c1` [DEXKETOPROFEN], the IC50 entry (in series [1] (jurkat); in series [2]; in series [3]; against Insulin receptor; in series [4] (cho-k1); against Cytochrome P450 1A2) was “Not Active” in each case. For the same compound, the inhibition constant (Ki) entry (in series [2]; in series [3]; at Cytochrome P450 1A2) was “Not Active” in each case.
